Measured values as given in ChEMBL document CHEMBL1649473, “Crystal structure of Bacillus anthracis dihydrofolate reductase with the dihydrophthalazine-based trimethoprim derivative RAB1 provides a structural explanation of potency and selectivity” (Antimicrob Agents Chemother, 2009).

Assays:
Dihydrofolate reductase [1] = target: T1, Dihydrofolate reductase (Bacillus anthracis, UniProt Q81R22); assay: Inhibition of Bacillus anthracis DHFR
T1 sequence (Q81R22 whole entry): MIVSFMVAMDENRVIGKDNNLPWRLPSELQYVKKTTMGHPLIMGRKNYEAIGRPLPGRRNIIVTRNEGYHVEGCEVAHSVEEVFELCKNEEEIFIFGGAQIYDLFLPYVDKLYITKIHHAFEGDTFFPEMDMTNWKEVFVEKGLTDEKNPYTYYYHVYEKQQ

Bacillus anthracis = assay: Antibacterial activity against Bacillus anthracis; format: functional
Dihydrofolate reductase [2] = target: T2, Dihydrofolate reductase (Homo sapiens, UniProt P00374); assay: Inhibition of human DHFR
T2 sequence (P00374 whole entry): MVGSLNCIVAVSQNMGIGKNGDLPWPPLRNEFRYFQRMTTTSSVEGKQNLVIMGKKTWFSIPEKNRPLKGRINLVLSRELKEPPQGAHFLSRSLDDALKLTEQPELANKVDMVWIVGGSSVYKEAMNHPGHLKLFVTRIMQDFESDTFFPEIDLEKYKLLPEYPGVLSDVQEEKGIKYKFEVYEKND

Compound	IC50 (Dihydrofolate reductase [1])	MIC (Bacillus anthracis)	IC50 (Dihydrofolate reductase [2])
C=CC(=O)N1N=Cc2ccccc2C1CCC (stereo unspecified)	46 nM	–	–
CCCC[C@H]1c2ccccc2C=NN1C(=O)/C=C/c1cc(Cc2cnc(N)nc2N)cc(OC)c1OC	170 nM	–	–
CC[C@H]1c2ccccc2C=NN1C(=O)/C=C/c1cc(Cc2cnc(N)nc2N)cc(OC)c1OC	96 nM	–	–
CCC[C@H]1c2ccccc2C=NN1C(=O)/C=C/c1cc(Cc2cnc(N)nc2N)cc(OC)c1OC	54 nM	≤ 12.8 µg/mL	110000 nM
